Experimental data published in PubChem BioAssay (NCI).
Values joined by “and” are separate entries in the source; they are usually repeats but may differ in a detail not shown here. Equal values may be shown once.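 48-hour exposure; five concentrations; linearly interpolated endpoints. Abbreviation: GI50, concentration required for 50% inhibition of growth. At the TGI there is no net growth.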

Columns and labels:
Assay in all cases: NCI anticancer screen, dose series, 48 h
786-0 renal = test system: 786-0 renal
DLD-1 colon = test system: DLD-1 colon
HCC-2998 colon = test system: HCC-2998 colon
HOP-62 NSCLC = test system: HOP-62 NSCLC
NCI-H226 lung = test system: NCI-H226 lung
SNB-75 CNS = test system: SNB-75 CNS
SNB-78 CNS = test system: SNB-78 CNS
UACC-62 melanoma = test system: UACC-62 melanoma
MDA-MB-435 = test system: MDA-MB-435
T-47D breast = test system: T-47D breast

Row | SMILES | TGI (786-0 renal) | TGI (DLD-1 colon) | TGI (HCC-2998 colon) | TGI (HOP-62 NSCLC) | TGI (NCI-H226 lung) | TGI (SNB-75 CNS) | TGI (SNB-78 CNS) | TGI (UACC-62 melanoma) | TGI (MDA-MB-435) | TGI (T-47D breast) | GI50 (786-0 renal) | GI50 (DLD-1 colon) | GI50 (SNB-75 CNS) | GI50 (UACC-62 melanoma)
1 | COc1cccc2c(SCC(=O)Nc3ccccc3-c3ccccc3NC(=O)CSc3c4ccccc4nc4c(OC)cccc34)c3ccccc3nc12 | > 100 µM | > 100 µM | > 100 µM | > 100 µM | > 100 µM | 44.5 µM | > 100 µM | > 100 µM |  |  |  |  |  | 
2 | O=C(COC(=O)c1cccc2c(=O)c3ccccc3[nH]c12)Nc1ccc(Cl)cc1 | > 100 µM | > 100 µM | > 100 µM | 78.5 µM | > 100 µM | 78.6 µM | > 100 µM | > 100 µM |  |  |  |  |  | 
3 | CCCCCN(CCCCC)C(=O)[C@H](CCC(=O)O)NC(=O)c1cc2ccccc2[nH]1 | > 100 µM | > 100 µM | > 100 µM | > 100 µM | > 100 µM | 98.4 µM | > 100 µM | > 100 µM |  |  |  |  |  | 
4 | CN(C)C(=S)/N=c1\ssc(=S)n1Cc1ccco1 | > 46.4 µM | > 100 µM | > 100 µM | > 63.1 µM | > 100 µM | > 23.9 µM | > 100 µM | > 59.3 µM | 1.95 µM | > 100 µM |  |  |  | 
5 | C[C@]12Cc3conc3C(O)=C1CC[C@@H]1C2CC[C@@]2(C)C1CC[C@]2(C)O (stereo partly specified) | > 100 µM | 57.5 µM | 62.1 µM | 64.2 µM | 47.3 µM | 32.4 µM | 63.4 µM | 29.2 µM |  |  |  |  |  | 
6 | CCCS(=O)c1nc(COC(=O)NC)c(COC(=O)NC)n1C (stereo unspecified) | > 100 µM | > 100 µM | > 100 µM | > 100 µM | > 100 µM | > 100 µM | > 100 µM | > 100 µM |  |  |  |  |  | 
7 | Cc1cc(N(CCC#N)CCC#N)ccc1/C=C(\NC(=O)/C=C/c1ccccc1)C(=O)Nc1ccc(Cl)cc1 | > 100 µM | > 100 µM | > 58.7 µM | > 100 µM | > 100 µM | > 100 µM | > 100 µM | > 14.7 µM | > 100 µM | > 100 µM |  |  |  | 
8 | Nn1c(-c2cccc(Cl)c2)nc2ccccc2c1=O | > 100 µM | > 100 µM | > 100 µM | > 100 µM | > 100 µM | > 100 µM | > 100 µM | > 100 µM |  |  |  |  |  | 
9 | N#CC(C(=N/O)/C(=N\O)C(C#N)c1ccccc1)c1ccccc1 (stereo unspecified) | > 100 µM | > 100 µM | > 100 µM | > 100 µM | > 100 µM | > 100 µM | > 100 µM | > 100 µM |  |  |  |  |  | 
10 | Cc1ccc(C)c(NC(=O)C(=O)C2C(=O)N(c3ccccc3)N=C2N)c1 (stereo unspecified) | > 100 µM | > 100 µM | > 100 µM | > 100 µM | > 100 µM | > 100 µM | > 100 µM | > 100 µM |  |  |  |  |  | 
11 | Cc1cc(Cl)ccc1N=C1NC(=O)C(CC(=O)Nc2cccc(C)c2C)S1 (stereo unspecified) | 47.9 µM | > 100 µM | 65.1 µM | 62.6 µM |  | 48.8 µM | 79.7 µM | 71.3 µM |  |  |  |  |  | 
12 | CN(C)N=Nc1cccc(C(N)=O)c1 | > 100 µM | > 100 µM | > 100 µM |  | > 100 µM | > 100 µM | > 100 µM |  |  |  |  |  |  | 
13 | COc1cc([C@@H]2OC(=O)C3C2C(=O)O[C@H]3c2ccc(O)c(OC)c2)ccc1O (stereo partly specified) | > 100 µM | > 100 µM | > 100 µM | > 100 µM | > 100 µM | > 100 µM | > 100 µM | > 100 µM |  |  |  |  |  | 
14 | O=C(Nc1ccc([N+](=O)[O-])cc1[N+](=O)[O-])C(=O)C(C(=O)c1ccc(Cl)c(Cl)c1)C1OC(=O)c2ccccc21 (stereo unspecified) | 41.5 µM | 42.4 µM |  | 36.9 µM | 36 µM | > 100 µM | 93.3 µM | 36 µM |  |  |  |  |  | 
15 | CCOC(=O)/C(C#N)=C\Sc1ccccc1 | 29.1 µM | 45.5 µM |  | 86.5 µM | 43 µM | 53.9 µM | > 100 µM | 42.3 µM |  |  |  |  |  | 
16 | C[C@]12CC(C=O)C(=O)C(O)=C1CC[C@@H]1C2CC[C@@]2(C)C1CC[C@]2(C)O (stereo partly specified) | 44.4 µM | 34.5 µM | 31.1 µM | > 100 µM | 39.5 µM | 45.9 µM | 35.8 µM | 36.5 µM |  |  |  |  |  | 
17 | COc1cc(C2c3cc4c(cc3[C@@H](Nc3ccc([N+](=O)[O-])cc3)C3COC(=O)[C@H]23)OCO4)cc(OC)c1O (stereo partly specified) | 3.35 µM | 19.2 µM | 7.01 µM | 0.947 µM and 2.07 µM | 3.1 µM | 0.836 µM and 7.83 µM | > 71.5 µM | 8.31 µM | > 100 µM |  | 0.377 µM | 3.15 µM | 0.333 µM | 0.547 µM
18 | O=C1C(Cl)=C(Cl)C(=O)N1c1cccc(C(F)(F)F)c1 | > 100 µM | > 100 µM | > 100 µM | > 100 µM | > 100 µM | > 100 µM | > 100 µM | > 100 µM |  |  |  |  |  | 
19 | CCCCCCCCC(C)CCCCCCCCC(=O)OCC(COP(=O)([O-])OCC[N+](C)(C)C)OC(=O)CCCCCCCCC(C)CCCCCCCC (stereo unspecified) | > 100 µM | > 100 µM | > 100 µM | > 100 µM | > 100 µM | > 100 µM | > 100 µM | > 100 µM |  |  |  |  |  | 
